Measurements: patent publication US7901906B2, “Targeting of MKRN1 for identifying cancer treatment agents” (University of Central Florida Research Foundation, Inc., priority 2006, dated 2011)

Key:
hTERT [1] = test: hTERT protein levels by immunoblotting in H1299 cells; assay type: cell-based, human
Protocol: FIG. 1. hTERT is sensitive to the Hsp90 antagonist geldanamycin. (A) Down-regulation of ectopically expressed hTERT by GA. H1299 cells transfected with Flag-hTERT or Flag-TRF1 were treated with 0.1 μM GA for the indicated times. Lysates were resolved on 8% SDS-PAGE and analyzed by immunoblotting using an anti-Flag antibody probe. Cells were pretreated with 10 μM MG132 or E-64 for 2 hours, either alone or before treatment with GA. (B) Concentration dependence of GA on hTERT. H1299 cells transfected with Flag-hTERT or hTERT-HA were treated for 2 hours with the GA concentration indicated. The hTERT polypeptides were visualized with anti-Flag or anti-HA antibodies as marked by each blot. (C) Down-regulation of endogenous hTERT by GA. H1299 cells were treated with 0.1 μM GA for the indicated times, and cell lysates were analyzed by immunoprecipitation with anti-hTERT antibody followed by immunoblotting using same antibody probe. Cells were pretreated with 10 μM MG132 for 2 hours, either alone or before treatment with GA. Molecular weight markers are shown in kilodaltons. (D) H1299 cells were treated with 0.1 μM GA for the indicated times, and cell lysates were analyzed for telomerase activity by the TRAP assay. The lane labeled LB corresponds to the negative control (lysis buffer only). ITAS represents the internal telomerase assay standard. (E) Saos-2 cells transfected with Flag-hTERT or hTERT-HA or empty vector were untreated or treated with 0.1 μM GA for 16 hours, and cell lysates were analyzed for telomerase activity using the TRAP assay.
(§1) FIG. 2. hTERT is ubiquitinated prior to proteasome-mediated degradation. (A) H1299 cells were co-transfected with Flag-hTERT and HA-ubiquitin. Cells were either untreated or treated for 2 hours with 10 μg/ml ALLnN or 0.1 μM GA, or a combination of the two as specified above each lane. Immunoprecipitation was performed with anti-Flag antibody before probing with anti-hTERT or anti-HA antibodies as indicated besides each blot. Molecular weight markers are shown in kilodaltons. (B) H1299 cells co-transfected with Flag-hTERT and HA-ubiquitin were treated for 1 hour with the GA concentration indicated in the presence of 10 μM MG132. Immunoprecipitation was performed with anti-Flag antibody followed by immunoblotting using an anti-HA antibody probe. (C) H1299 cells co-transfected with Flag-hTERT and HA-ubiquitin were either untreated or treated for 2 hours with 10 μg/ml ALLnN as specified above each lane. Proteins were immunoprecipated with anti-Flag antibody followed by immunoblotting using an anti-HA antibody probe.
The human lung carcinoma cell line H1299 was cultured in RPMI-1640 medium, and the human fibrosarcoma cell line HT1080 was cultured in Dulbecco's modified Eagle's medium supplemented with 10% fetal bovine serum, 100 units/ml penicillin, and 100 μg/ml streptomycin in 5% CO2 at 37° C. The human osteosarcoma cell line Saos-2 was maintained in McCoy's 5A medium containing 15% fetal bovine serum, 100 units/ml penicillin, and 100 μg/ml streptomycin. To establish cell lines stably expressing MKRN1, the MKRN1-V5 construct was transfected into HT1080 cells using Lipofectamine Plus (Invitrogen, Carlsbad, Calif.) according to the manufacturer's instructions. As a control, HT1080 cells were also stably transfected with an empty vector. Multiple independent single clones were isolated and checked for protein expression by immunoblotting with anti-V5 antibody.
H1299 cells were transiently transfected with the expression vectors indicated in the figure legends using TransFast transfection reagent (Promega, Madison, Wis.) according to the manufacturer's instructions. Cells were lysed with buffer containing 0.5% NP-40, 50 mM Tris-HCl (pH 7.5), 150 mM NaCl, 2 mM phenyl methylsulphonyl fluoride. […]

hTERT [2] = test: Ubiquitination of hTERT in H1299 cells (immunoprecipitation, anti-HA immunoblot); assay type: cell-based, human; settings: H1299 Flag-hTERT and HA-ubiquitin, MG132
Protocol: as §1
(§2) FIG. 4. MKRN1 functions as an E3 ubiquitin-ligase for hTERT in vitro and in vivo. (A) HA-tagged hTERT (residues 946-1132) was incubated MKRN1 or mutants in the presence of E1, E2, His6-ubiquitin (6×His tag disclosed as SEQ ID NO: 7). Samples were resolved by 6% SDS-PAGE and analyzed by immunoblotting with an anti-HA antibody probe. (B) H1299 cells were co-transfected with Flag-hTERT, HA-ubiquitin, MKRN1-V5, and together with either MKRN1^H307E-V5 or MKRN1^Δ^C-V5 as specified. Cells were untreated or treated with 10 μM MG132 for 2 hours. Anti-Flag immunoprecipitates and cell lysates were analyzed by immunoblotting with anti-HA antibody and anti-V5 antibody probes, respectively. (C) H1299 cells co-transfected with Flag-hTERT and HA-ubiquitin, and together with or without MKRN1-V5 as indicated were treated with 10 μM MG132 for the indicated times. Anti-Flag immunoprecipitates and cell lysates were analyzed by immunoblotting with anti-HA antibody and anti-V5 antibody probes, respectively.
H1299 cells were transiently transfected with the expression vectors indicated in the figure legends using TransFast transfection reagent (Promega, Madison, Wis.) according to the manufacturer's instructions. Cells were lysed with buffer containing 0.5% NP-40, 50 mM Tris-HCl (pH 7.5), 150 mM NaCl, 2 mM phenyl methylsulphonyl fluoride. After centrifugation at 12,000 rpm for 30 min, the supernatants were immunoprecipitated for 2 hours with anti-Flag (Sigma, St. Louis, Mo.) or anti-HA (Santa Cruz biotechnology, Santa Cruz, Calif.) antibodies and then incubated with Sepharose beads conjugated to Protein G (Amersham Biosciences Inc., Piscataway, N.J.). When ubiquitin conjugates of hTERT were detected, immunoprecipitation was performed with lysis buffer containing 0.1% SDS to dissociate its interacting proteins. Immunoblot analyses were performed using anti-hTERT (Santa Cruz biotechnology, Santa Cruz, Calif.), anti-V5 (Invitrogen, Carlsbad, Calif.), anti-HA, and anti-Flag antibodies.
GA-mediated protein degradation by the proteasome depends on conjugation of ubiquitin to the Hsp90 client protein (Isaacs et al. 2002; Citri et al. 2002). To determine whether hTERT is ubiquitinated in vivo prior to its degradation, H1299 cells co-transfected with Flag-tagged hTERT and HA-tagged ubiquitin constructs were treated with GA, ALLnN (a general proteasome inhibitor) or both. The immunoprecipitated products were evaluated by immunoblotting with selected probes as described in FIG. 2. […]

[3] = system: hTERT (residues 946-1132); test: In vitro ubiquitination assay; assay type: biochemical, human; settings: purified components, E1, E2, His6-ubiquitin, 30° C., 60 min
Protocol: as §2
GST-hTERT-HA expressed in bacteria was used as substrate for in vitro ubiquitination assay (Park et al. 2004). The ubiquitination reactions were carried out in buffer (50 mM Tris-HCl, pH 7.5, 2 mM ATP, 2.5 mM MgCl2, 5 mM dithiothreitol, and 0.05% NP-40) containing yeast E1 (0.05 μg), E2 (0.2 μg), and His6-ubiquitin (0.8 μg) (6×His disclosed as SEQ ID NO: 7) in a final volume of 30 μl. […]

CC(C)C[C@H](NC(=O)[C@H]1O[C@@H]1C(=O)O)C(=O)NCCCCN=C(N)N [E-64]
effect on GA-induced down-regulation of hTERT (hTERT [1]; H1299 Flag-hTERT, 10 μM pretreatment 2 hours, then GA 4 hours): had no effect | hTERT expression levels, inhibitor alone (hTERT [1]; H1299 Flag-hTERT, 10 μM, absence of GA, relative to untreated controls): did not cause a significant change

COC1=C2C[C@@H](C)C[C@H](OC)[C@H](O)[C@@H](C)/C=C(\C)[C@H](OC(N)=O)[C@@H](OC)/C=C\C=C(/C)C(=O)NC(=CC1=O)C2=O [GA, geldanamycin]
hTERT protein eliminated (hTERT [1]; H1299 transfected with Flag-hTERT, 0.1 μM GA, within 2 hours): over 50%

B1: MKRN1^H307E: MKRN1 mutant with mutated histidine residue in the RING finger domain (protein)
chain: MAEAATPGTTATTSGAGAAAATAAAASPTPIPTVTAPSLGAGGGGGGSDGSGGGWTKQVTCRYFMHGVCKEGDNCRYSHDLSDSPYSVVCKYFQRGYCIYGDRCRYEHSKPLKQEEATATELTTKSSLAASSSLSSIVGPLVEMNTGEAESRNSNFATVGAGSEDWVNAIEFVPGQPYCGRTAPSCTEAPLQGSVTKEESEKEQTAVETKKQLCPYAAVGECRYGENCVYLHGDSCDMCGLQLLHPMDAAQRSQHIKSCIEAHEKDMELSFAVQRSKDMVCGICMEVVYEKANPSERRFGILSNCNETYCLKCIRKWRSAKQFESKIIKSCPECRITSNFVIPSEYWVEEKEEKQKLILKYKEAMSNKACRYFDEGRGSCPFGGNCFYKHAYPDAGREEPQRQKVGTSSRYRAQRRNHFWELIEERENSNPFDNDEEEVVTFELGEMLLMLLAAGGDDELTDSEDEWDLFHDELEDFYDLDL
modifications: left off: small tags and cut ends
amount of ubiquitinated hTERT on co-expression (hTERT [2]): significantly reduced | ubiquitination of C-terminal domain of hTERT [3]: not
